One block for each molecule: values may come before it.
Key:
AMPA receptor [1] = conditions: cited from earlier work
[2] = rat, in vivo, ip
From the text: To test the ability of invention compounds to pass the blood-brain barrier, Invention Compound II was labelled with carbon-11.
Radiolabelled Invention Compound II (see the table above) is synthesized by the following scheme (wherein the numbers in parenthesis refer to the quantity of reagent used, in millimoles): [drawing 31]
wherein Ar is aryl (such as methylenedioxybenzene), Im is imidazole (thus, ImHCl is imidazole hydrochloride), and R is an alkyl or alkylene radical (so that R2NH is, for example, piperidine). ^11C-labelled CO2 is produced by cyclotron irradiation and subsequently used in the above-described synthetic scheme. The time to complete the synthesis is about […] (2 times the half-life of carbon-11). After purification of [^11C]II on C18 Sep Pak, 260 μCi was diluted with 20 mg of nonradioactive II as carrier in a 1-ml solution of 23% propylene glycol and 10% ethanol in physiologically-buffered saline in order to simulate the dosage of 100 mg/Kg that was used in behavioral studies. The final 1 ml of solution was administered to a 200 g rat under halothane anesthesia (1.4-1.7% in oxygen) by intraperitoneal (i.p.) injection.
Biodistribution of the radiotracer in the body of the rat was monitored by a positron camera (Scanditronix PC2048-15B) and the time-activity curves were constructed using a Vax 3500 (Digital Equipment Corporation) and shown in FIG. 5.

AMPA receptors [3] = biological target: T1, AMPA receptors; assay: field EPSPs in field CA1 of in vitro slices of rat hippocampus; type: cell-based; conditions: for EC50: estimated from log dose/response curves, maximal response of 85% increase assumed where limited solubility prevented a maximum, read-out: EC50 (percent increase in field EPSP amplitude)
T1 construct: EC50 (percent increase in field EPSP amplitude); other: estimated from log dose/response curves; maximal response of 85; effect on field EPSP amplitude and duration; other: 1.5 mM, 15 minute infusion; enhancement of the area of the field EPSP; other: 100 μM; mean and S.D. of 4
Protocol: The physiological effects of invention compounds can be tested in vitro with slices of rat hippocampus as follows. Excitatory responses (field EPSPs) are measured in hippocampal slices which are maintained in a recording chamber continuously perfused with artificial cerebrospinal fluid (ACSF).
To conduct these tests, the hippocampus was removed from anesthetized, 2 month old Sprague-Dawley rats and in vitro slices (400 micrometers thick) were prepared and maintained in an interface chamber at 35° C. using conventional techniques [see, for example, Dunwiddie and Lynch, J. Physiol. Vol. 276: 353-367 (1978)]. The chamber was constantly perfused at 0.5 ml/min with ACSF containing (in mM): NaCl 124, KCl 3, KH2PO4 1.25, MgSO4 2.5, CaCl2 3.4, NaHCO3 26, glucose 10 and L-ascorbate 2. A bipolar nichrome stimulating electrode was positioned in the dendritic layer (stratum radiatum) of the hippocampal subfield CA1 close to the border of subfield CA3.
Current pulses (0.1 msec) through the stimulating electrode activate a population of the Schaffer-commissural (SC) fibers which arise from neurons in the subdivision CA3 and terminate in synapses on the dendrites of CA1 neurons. Activation of these synapses causes them to release the transmitter glutamate. Glutamate binds to the post-synaptic AMPA receptors which then transiently open an associated ion channel and permit a sodium current to enter the postsynaptic cell. This current results in a voltage in the extracellular space (the field excitatory post-synaptic potential or field “EPSP”) which is recorded by a high impedance recording electrode positioned in the middle of the stratum radiatum of CA1.
For the experiments summarized in FIG. 1, the intensity of the stimulation current was adjusted to produce half-maximal EPSPs (typically about 1.5-2.0 mV). Paired stimulation pulses were given every 40 sec with an interpulse interval of 200 msec (see below). The field EPSPs of the second response were digitized and analyzed to determine amplitude, half-width, and response area. If the responses were stable for 15-30 minutes (baseline), test compounds were added to the perfusion lines for a period of about 15 minutes. The perfusion was then changed back to regular ACSF.
Paired-pulse stimulation was used since stimulation of the SC fibers, in part, activates interneurons which generate an inhibitory postsynaptic potential (IPSP) in the pyramidal cells of CA1. This feed forward IPSP typically sets in after the EPSP reaches its peak. It accelerates the repolarization and shortens the decay phase of the EPSP, and thus could partially mask the effects of the test compounds. One of the relevant features of the feed-forward IPSP is that it can not be reactivated for several hundred milliseconds following a stimulation pulse. This phenomenon can be employed to advantage to eliminate IPSP by delivering paired pulses separated by 200 milliseconds and using the second (“primed”) response for data analysis.
The variables set forth in the table refer to the following generic structure: […]

AMPA receptors [4] = assay: long-term potentiation (theta burst stimulation) in CA1 field of hippocampal slices; type: cell-based, rat; conditions: 1.5 mM infused 15 minutes prior to theta burst stimulation; five experiments; p<0.02
Protocol: Long-term potentiation (LTP; a stable increase in the EPSP size of single responses after brief periods of high frequency stimulation) was elicited in the CA1 field of hippocampal slices in the absence (see FIG. 3, stippled bars, N=6) and in the presence of 1.5 mM of Invention Compound I (see FIG. 3, striped bars, N=5). In the latter case, the amount of potentiation was determined after washing out the test compound and comparing the response size with that before test compound infusion. Data presented in FIG. 3 show the percent increase in the EPSP amplitude (mean and S.D.) at 40, 60, and 90 minutes after LTP induction.
For these studies, field EPSPs in slices of hippocampus were elicited by single stimulation pulses and recorded by extracellular electrodes as described in Example II. After collecting responses every 40 seconds for 20-30 minutes to establish a baseline, LTP was induced with ten short bursts of pulses delivered to the CA3 axons; each burst consisted of four pulses separated by 10 milliseconds; the interval between the bursts was 200 milliseconds. This pattern of axon stimulation mimics a discharge rhythm observed in the hippocampus of animals engaged in learning and is referred to as the “theta burst stimulation paradigm” [see, for example, Larson and Lynch in Science Vol. 232: 985-988 (1986)]. […]

AMPA receptor [5] = type: in vivo, rat; conditions: 120-180 mg/kg i.p.
Protocol: Stimulating and recording electrodes were placed in the hippocampus of anesthetized rats so as to activate and monitor the same synaptic responses as in the slice studies described in Example XV. […] The time constant for the decay of the EPSP is a measure for the duration of the response.
In these experiments, male Sprague-Dawley rats were anesthetized with urethane (1.7 g/kg) and body temperature was maintained at 37° C. with the use of a heat lamp. A stimulation electrode (two twisted stainless steel wires, 150 μm diameter, insulated with teflon) was placed stereotaxically in the trajectory of the Schaffer collateral (SC) pathway from CA3 to CA1 of the hippocampus (coordinates relative to Bregma: 3.5 mm P., 3.5 mm L., and 3.0-3.7 mm V). […]
Negative field potentials reflecting dendritic EPSPs evoked by SC stimulation (0.1 ms pulses, 10-100 μA) with paired pulses (inter-pulse interval of 200 msec; see methodology described in Example XV) were amplified 500 times and digitized by computer at 20 sec intervals throughout each experiment. […] Decay time constants were determined by single exponential fits to the decay phase of the synaptic response and expressed as a percent of the value obtained during the pre-injection control period.

- degree of stable long-term potentiation versus stimulation in absence of drug (AMPA receptors [4]): nearly twice as large
- fold greater increase in the response area than aniracetam (AMPA receptors [3]; 750 μM): nine-fold
- effect on synaptic response compared with aniracetam (AMPA receptors [3]; 750 μM versus aniracetam 1500 μM, 15 minute infusion): much larger effect
- reversibility of effect upon washout (AMPA receptors [3]; after 15 minute infusion): fully reversible upon washout
Compound: O=C(c1ccc2c(c1)OCCO2)N1CC=CCC1 [Compound I]
- time within which the effect reversed after injection (AMPA receptor [5]): 60 to 120 min
- effect on duration (decay time constant) of synaptic response (AMPA receptor [5]; anesthetized rats, n=8): rapid increase in the duration of the synaptic response
- times greater effect on response area than aniracetam at the same concentrations (AMPA receptors [3]; dosages in the range of 750 μM to 1.5 μM): 6-9 times

- EC50 (AMPA receptors [3]): 1.3 mM
Compound: O=C(c1ccc2ncoc2c1)N1CCCCC1 [Compound X, 1-(1,3-benzoxazol-6-ylcarbonyl)-piperidine]

- EC50 (AMPA receptors [3]): 3 mM
Compound: O=C(c1ccc2ocnc2c1)N1CC=CCC1 [Compound XI, 1-(1,3-benzoxazol-5-ylcarbonyl)-1,2,3,6-tetrahydropyridine]

More lines, now with the values behind:

Compound: COc1ccc(C(=O)N2CC[C@@H](O)C2=O)cc1 [AHP, (R)-1-p-anisoyl-3-hydroxy-2-pyrrolidinone]
- facilitation of AMPA receptor mediated responses in slices (AMPA receptor [1]; nootropics tested in slices): facilitate AMPA receptor mediated responses

Compound: O=C(c1ccc2c(c1)OCO2)N1CCCCC1 [Compound II, 1-(1,3-benzodioxol-5-ylcarbonyl)-piperidine]
- brain distribution relative to head excluding the cranial cavity [2]: approximately equal
- brain distribution relative to heart [2]: two-thirds
- brain distribution relative to liver [2]: approximately one-quarter
- passage of the blood-brain barrier [2]: passes freely through the blood-brain barrier
- time to plateau of brain uptake [2]: 5 to 10 min

Compound: O=C(c1ccc2ncoc2c1)N1CC=CCC1 [Compound IX, 1-(1,3-benzoxazol-6-ylcarbonyl)-1,2,3,6-tetrahydodyridine]
- EC50 (AMPA receptors [3]): 4 mM

Compound: O=C(c1cccc2c1OCCO2)N1CC=CC1 [Compound VIII, 1-(1,4-benzodioxan-5-ylcarbonyl)-3-pyrroline]
- EC50 (AMPA receptors [3]): 3 mM

Compound: O=C(c1ccc2nc[nH]c2c1)N1CCCCC1 [Compound XII, 1-(1,3-benzimidazol-5-ylcarbonyl)-piperidine]
- EC50 (AMPA receptors [3]): 5 mM

Compound: COc1ccc(C(=O)NCCCC(=O)O)cc1 [anisoyl-GABA]
- aniracetam-like effects (AMPA receptor [1]): no aniracetam-like effects
